# Experiments:
# Transport = conditions: rat, pH 7.4
# HIV-1 in MT4 cells = assay: In vitro anti-HIV activity in MT4 cells, colorimetric XTT assay; format: cell-based; conditions: Human immunodeficiency virus 1, MT4
# HIV-1 protease = HIV-1 protease (Human immunodeficiency virus type 1 group M subtype B, UniProt P04585); assay: HIV-1 protease inhibition, fluorometric assay; format: biochemical
# [1] = Bidirectional transport across Caco-2 cell monolayers; conditions: human, Caco-2, pH 7.4
SMILES,Papp (Transport),Papp at 90 min (Transport),EC50 (HIV-1 in MT4 cells),Ki (HIV-1 protease),Papp A→B [1],Papp B→A [1],efflux ratio [1]
"CNC(=O)[C@@H](NC(=O)[C@](O)(Cc1ccccc1)CN(Cc1ccc(-c2ccccn2)cc1)NC(=O)[C@@H](NC(=O)OC)C(C)(C)C)C(C)(C)C [Compound 11, methyl (S)-1-(2-((S)-2-benzyl-3-((S)-3,3-dimethyl-1-(methylamino)-1-oxobutan-2-ylamino)-2-hydroxy-3-oxopropyl)-2-(4-(pyridin-2-yl)benzyl)hydrazinyl)-3,3-dimethyl-1-oxobutan-2-ylcarbamate]",3.8 ×10⁻⁶ cm/s,< 8 ×10⁻⁶ cm/s,> 10000 nM,23 nM,3.4 ± 0.4 ×10⁻⁶ cm/s,26 ± 9.1 ×10⁻⁶ cm/s,7.6
"CC(C)(C)NC(=O)[C@@H]1CN(Cc2cccnc2)CCN1C[C@@H](O)C[C@@H](Cc1ccccc1)C(=O)N[C@H]1c2ccccc2C[C@H]1O [Indinavir, reference compound]",,,41 nM,,,,
